What is called IC50 is the concentration that gives 50% inhibition. A low value points to greater potency. One may read the inhibition as the relative decrease from the control value, in per cent.

The target of test [1] is T1, Acetylcholinesterase (Homo sapiens, UniProt P22303). Nature of the test: Inhibition of AChE (unknown origin) using acetylthiocholine iodide as substrate by DTNB reagent based Ellman's method.
For another test, the target named is Cholinesterase (Homo sapiens, UniProt P06276). Nature of the test: Inhibition of BuChE (unknown origin) using butyrylthiocholine iodide as substrate by DTNB reagent based Ellman's method. Background: In Ellman's method for cholinesterases, released thiocholine reacts with DTNB.
Test [2] has as its target T1, Acetylcholinesterase. The test is described as follows: Mixed type inhibition of AChE (unknown origin) using acetylthiocholine iodide as substrate by Lineweaver-Burk double reciprocal plot analysis.
For test [3], the target named is 5-hydroxytryptamine receptor 4 (Homo sapiens) (UniProt Q13639). Nature of the test: Displacement of [3H]GR113808 from human 5-HT4 receptor expressed in Chem-1 cell membrane incubated for 60 mins by radiometric scintillation counting analysis relative to control. The following applies: filed as agonist. Type of test: cell membranes. In general terms: Loss of bound radioactivity is the signal in a displacement assay; it reports binding, not function.

The source made the active and inactive calls. No cut-off for these calls is given here. Where only a bound is given, the exact number is not on record here.

Chain of Cholinesterase (P06276 whole entry): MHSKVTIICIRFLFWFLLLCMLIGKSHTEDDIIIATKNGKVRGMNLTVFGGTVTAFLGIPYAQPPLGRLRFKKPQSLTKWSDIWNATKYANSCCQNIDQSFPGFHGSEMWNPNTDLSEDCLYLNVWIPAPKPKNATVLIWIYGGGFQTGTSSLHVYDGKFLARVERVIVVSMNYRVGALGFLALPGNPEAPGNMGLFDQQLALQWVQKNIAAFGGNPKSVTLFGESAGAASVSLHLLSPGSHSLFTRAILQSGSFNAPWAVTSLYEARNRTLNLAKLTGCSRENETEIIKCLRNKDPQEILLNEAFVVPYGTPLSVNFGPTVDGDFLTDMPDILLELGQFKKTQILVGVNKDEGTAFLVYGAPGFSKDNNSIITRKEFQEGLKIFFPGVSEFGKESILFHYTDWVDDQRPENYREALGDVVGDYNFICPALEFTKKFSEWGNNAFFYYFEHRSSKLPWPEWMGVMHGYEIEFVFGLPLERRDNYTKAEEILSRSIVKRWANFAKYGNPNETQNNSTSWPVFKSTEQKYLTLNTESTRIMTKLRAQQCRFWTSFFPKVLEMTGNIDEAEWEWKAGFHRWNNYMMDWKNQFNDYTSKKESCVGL
T1 sequence (P22303 whole entry): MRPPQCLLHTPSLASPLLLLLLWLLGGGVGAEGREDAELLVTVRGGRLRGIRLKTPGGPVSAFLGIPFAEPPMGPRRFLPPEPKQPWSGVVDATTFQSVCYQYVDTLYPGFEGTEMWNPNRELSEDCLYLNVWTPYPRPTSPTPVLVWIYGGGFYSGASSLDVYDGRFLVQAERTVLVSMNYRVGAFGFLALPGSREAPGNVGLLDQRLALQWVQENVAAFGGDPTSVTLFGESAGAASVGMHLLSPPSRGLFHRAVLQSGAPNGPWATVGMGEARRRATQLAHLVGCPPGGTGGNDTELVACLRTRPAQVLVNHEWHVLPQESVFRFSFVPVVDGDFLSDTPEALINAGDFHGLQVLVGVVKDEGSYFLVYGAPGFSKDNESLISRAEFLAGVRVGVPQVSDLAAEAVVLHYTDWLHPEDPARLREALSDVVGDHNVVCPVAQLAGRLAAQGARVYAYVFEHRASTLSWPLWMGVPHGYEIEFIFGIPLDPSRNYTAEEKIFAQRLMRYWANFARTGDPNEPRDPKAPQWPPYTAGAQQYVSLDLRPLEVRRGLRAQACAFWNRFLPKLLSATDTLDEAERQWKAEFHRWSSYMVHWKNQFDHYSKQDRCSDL
Chain of 5-hydroxytryptamine receptor 4 (Homo sapiens) (Q13639 whole entry): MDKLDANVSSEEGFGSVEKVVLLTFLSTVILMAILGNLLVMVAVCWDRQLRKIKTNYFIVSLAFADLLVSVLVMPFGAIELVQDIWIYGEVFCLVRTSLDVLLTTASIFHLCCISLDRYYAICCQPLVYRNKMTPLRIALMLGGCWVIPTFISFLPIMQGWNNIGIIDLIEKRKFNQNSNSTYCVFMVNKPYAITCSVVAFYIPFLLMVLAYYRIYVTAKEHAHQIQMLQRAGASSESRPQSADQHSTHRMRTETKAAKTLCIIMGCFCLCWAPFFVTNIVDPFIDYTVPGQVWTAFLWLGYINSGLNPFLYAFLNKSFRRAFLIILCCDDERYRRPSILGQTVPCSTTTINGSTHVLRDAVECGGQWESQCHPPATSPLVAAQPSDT

Take `COc1ccc(C(=O)Cc2ncc(C(=O)N(C)CCCOc3ccc([N+](=O)[O-])cc3)cn2)cc1`: the IC50 came out at 4.56 µM against Acetylcholinesterase [1] and 13.1 µM against Cholinesterase.
Take `COc1ccc(C(=O)Cc2ncc(C(=O)N(C)CCCOc3ccc(C(F)(F)F)cc3)cn2)cc1`: the values for the IC50 at Acetylcholinesterase [1] and against Cholinesterase were 29.8 µM and 6.24 µM, respectively.
On to `COc1ccc(C(=O)Cc2ncc(C(=O)Nc3ccncc3)cn2)cc1`, for which the values for the IC50 on Acetylcholinesterase [1] and against Cholinesterase were 17.9 µM and 31.4 µM, respectively.
For `CN(CCCOc1ccc([N+](=O)[O-])cc1)C(=O)c1cnc(CC(=O)c2ccccc2)nc1`, in that order: 9.94 µM and 6.08 µM.
Consider `COc1ccc(OCCCN(C)C(=O)c2cnc(CC(=O)c3ccc(OC)cc3)nc2)cc1`, for which the IC50 was 9.82 µM on Acetylcholinesterase [1] and 9.16 µM at Cholinesterase.
With `COc1cccc(C(=O)Cc2ncc(C(=O)N(C)CCCOc3ccc([N+](=O)[O-])cc3)cn2)c1`, the figures for the IC50 at Acetylcholinesterase [1] and on Cholinesterase were 4 µM and 2.59 µM, respectively.
On Cholinesterase, `C/C=C1\[C@H]2C=C(C)C[C@]1(N)c1ccc(=O)[nH]c1C2` [HUPERZINE A] came in with an IC50 of over 10000 µM.
With `CN(CCCOc1ccc([N+](=O)[O-])cc1)C(=O)c1cnc(CC(=O)c2cccs2)nc1`, the IC50 on Acetylcholinesterase [1] worked out at 0.88 µM; on Cholinesterase, 10 µM. Besides, on Acetylcholinesterase [2], the inhibition result was “Active”.
For the molecule `CN(CCCOc1ccc([N+](=O)[O-])cc1)C(=O)c1cnc(CC(=O)c2ccc3c(c2)OCO3)nc1`, the IC50 on Acetylcholinesterase [1] is 0.99 µM; at Cholinesterase, 48.4 µM.
Regarding `COc1ccc(C(=O)Cc2ncc(C(=O)NCc3ccc(OC)c(OC)c3)cn2)cc1`, the IC50 amounted to 10 µM on Acetylcholinesterase [1] and 30.7 µM against Cholinesterase.
In turn, `COc1cc(N)c(Cl)cc1C(=O)CCC1CCN(CC2CCCCC2)CC1` came in with an inhibition in test [3] of 48.3%.
For the molecule `COc1ccc(C(=O)Cc2ncc(C(=O)N(C)CCCOc3ccc(OC)c(OC)c3)cn2)cc1`, the IC50 on Acetylcholinesterase [1] was 29.8 µM; on Cholinesterase it was 8.3 µM.
For `COc1ccc(C(=O)Cc2ncc(C(=O)N3CCN(Cc4ccccc4)CC3)cn2)cc1`, in that order: 17.3 µM and 5.7 µM.
For `COc1ccc(C(=O)Cc2ncc(C(=O)N(C)CCCOc3c(F)c(F)c(F)c(F)c3F)cn2)cc1`, the 50% inhibitory concentration (IC50) worked out at 5.14 µM against Acetylcholinesterase [1] and 28.9 µM against Cholinesterase.
For the molecule `COc1ccc(C(=O)Cc2ncc(C(=O)N(C)CCCOc3cccc(OC)c3)cn2)cc1`, the IC50 against Acetylcholinesterase [1] is 44.9 µM; against Cholinesterase, 8.36 µM.
As for `COc1ccc(C(=O)Cc2ncc(C(=O)NCc3cccs3)cn2)cc1`, the IC50 was found to be 30.7 µM on Acetylcholinesterase [1] and 3.45 µM against Cholinesterase.
Regarding `CCOc1ccc(C(=O)Cc2ncc(C(=O)N(C)CCCOc3ccc([N+](=O)[O-])cc3)cn2)cc1`, the IC50 against Acetylcholinesterase [1] turned out to be 6.4 µM; against Cholinesterase it was 6.66 µM.
The matching figures for `COc1ccc(C(=O)Cc2ncc(C(=O)N(C)CCCOc3ccc([N+](=O)[O-])cc3)cn2)cc1OC`: 3.79 µM and 5.73 µM.
For `COc1ccc(C(=O)Cc2ncc(C(=O)NC3CCN(Cc4ccccc4)CC3)cn2)cc1`, in that order: 28 µM and 3.7 µM.

For the origin of these results see ChEMBL document CHEMBL5113467, “Design, synthesis and evaluation of 2-(2-oxoethyl)pyrimidine-5-carboxamide derivatives as acetylcholinesterase inhibitors” (Bioorg Med Chem Lett, 2022).
